# Laboratory results taken from ChEMBL document CHEMBL1201862, “PubChem BioAssay data set” (2004).
#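 Briefly, cells in 96-well plates were exposed to five compound concentrations for 48 h, and endpoints were estimated by linear interpolation. Abbreviation: GI50, concentration required for 50% inhibition of growth.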 Active and inactive are the calls of the source. Rule as the data show it: active = GI50 up to about 1.1 µM and inactive = higher. Square brackets hold non-standard residues; d marks the D form. Peptide text beside a SMILES is read from it. * marks the point of attachment. Bn2Val = CC(C)[C@@H](C(=O)*)N(Cc1ccccc1)Cc1ccccc1; NH(3,4-diMeO-benzyl) = COc1ccc(CN*)cc1OC; NMeV = CN[C@H](C(=O)O)C(C)C; dNMeA = CN[C@H](C)C(=O)O
# How the values were obtained:
# Assay in all cases: NCI anticancer screen, dose series, 48 h
# A498 = tested on: A498
# ACHN = tested on: ACHN
# CCRF-CEM = tested on: CCRF-CEM
# HCT-116 = tested on: HCT-116
# Hs-578T = tested on: Hs-578T
# IGROV-1 = tested on: IGROV-1
# MDA-MB-435 = tested on: MDA-MB-435
# Malme-3M = tested on: Malme-3M
# NCI-H226 = tested on: NCI-H226
# NCI/ADR-RES = tested on: NCI/ADR-RES
# OVCAR-4 = tested on: OVCAR-4
# RXF 393 = tested on: RXF 393
# SF-295 = tested on: SF-295
# SK-MEL-28 = tested on: SK-MEL-28
# SK-MEL-5 = tested on: SK-MEL-5
# SNB-75 = tested on: SNB-75
# T47D = tested on: T47D
# U-251 = tested on: U-251
# UACC-257 = tested on: UACC-257
# UACC-62 = tested on: UACC-62
Compound,GI50 (A498),GI50 (ACHN),GI50 (CCRF-CEM),GI50 (HCT-116),GI50 (Hs-578T),GI50 (IGROV-1),GI50 (MDA-MB-435),GI50 (Malme-3M),GI50 (NCI-H226),GI50 (NCI/ADR-RES),GI50 (OVCAR-4),GI50 (RXF 393),GI50 (SF-295),GI50 (SK-MEL-28),GI50 (SK-MEL-5),GI50 (SNB-75),GI50 (T47D),GI50 (U-251),GI50 (UACC-257),GI50 (UACC-62)
O=C1C=CC(=O)c2cc(Sc3ccccc3)c(=O)ccc21,16.2 µM (inactive),9.89 µM (inactive),1.76 µM (inactive),18 µM (inactive),27.4 µM (inactive),18.5 µM (inactive),25.5 µM (inactive),12.7 µM (inactive),23.1 µM (inactive),22 µM (inactive),11 µM (inactive),12.3 µM (inactive),8.36 µM (inactive),18 µM (inactive),14.2 µM (inactive),8.2 µM (inactive),3.41 µM (inactive),17 µM (inactive),18 µM (inactive),15.5 µM (inactive)
Oc1ccc(-c2c3ccccc3c(-c3ccc(OCCBr)cc3)c3ccccc23)cc1,23.2 µM (inactive),29.1 µM (inactive),60.1 µM (inactive),37.2 µM (inactive),24.3 µM (inactive),22 µM (inactive),21.7 µM (inactive),14.7 µM (inactive),20 µM (inactive),19.6 µM (inactive),24.2 µM (inactive),24.7 µM (inactive),16 µM (inactive),27.9 µM (inactive),19.1 µM (inactive),25.1 µM (inactive),35.7 µM (inactive),32.3 µM (inactive),24.2 µM (inactive),19.7 µM (inactive)
O=C(CN(c1ccc(S(=O)(=O)O)cc1)c1ccc(S(=O)(=O)O)cc1)Nn1cnc2ccc(S(=O)(=O)N(c3ccc(S(=O)(=O)O)cc3)c3ccc(S(=O)(=O)O)cc3)cc2c1=O,> 100 µM (inactive),> 100 µM (inactive),> 100 µM (inactive),> 100 µM (inactive),> 100 µM (inactive),61.2 µM (inactive),> 100 µM (inactive),> 100 µM (inactive),> 100 µM (inactive),> 100 µM (inactive),> 100 µM (inactive),> 100 µM (inactive),> 100 µM (inactive),> 100 µM (inactive),> 100 µM (inactive),> 100 µM (inactive),> 100 µM (inactive),> 100 µM (inactive),> 100 µM (inactive),> 100 µM (inactive)
COc1cc(C2c3cc4c(cc3OC3(OC)COC(=O)C23)OCO4)cc(OC)c1OC(C)=O (stereo not given),3.27 µM (inactive),1.32 µM (inactive),2.24 µM (inactive),0.785 µM (active),0.54 µM (active),2.21 µM (inactive),0.331 µM (active),> 100 µM (inactive),1.13 µM (inactive),0.323 µM (active),> 57.8 µM (inactive),0.499 µM (active),0.321 µM (active),2.27 µM (inactive),0.726 µM (active),0.384 µM (active),> 100 µM (inactive),2.13 µM (inactive),> 39.4 µM (inactive),4.78 µM (inactive)
C=C1C(C)C2C(Cc3ccccc3)NC(=O)C23C(OC(C)=O)/C=C/C(C)(O)CC(C)C/C=C/C3C1O (stereo not given),0.117 µM (active),0.492 µM (active),1.03 µM (active),4.53 µM (inactive),0.0129 µM (active),1.32 µM (inactive),32.9 µM (inactive),28.4 µM (inactive),0.728 µM (active),57 µM (inactive),0.904 µM (active),0.0394 µM (active),0.21 µM (active),3.94 µM (inactive),3.05 µM (inactive),0.014 µM (active),> 100 µM (inactive),0.0679 µM (active),17.1 µM (inactive),18.2 µM (inactive)
CC1C2Cc3ccc(O)cc3C1(C)CCN2C (stereo not given),> 100 µM (inactive),> 100 µM (inactive),> 100 µM (inactive),> 100 µM (inactive),> 100 µM (inactive),> 100 µM (inactive),> 100 µM (inactive),> 100 µM (inactive),> 100 µM (inactive),> 100 µM (inactive),> 100 µM (inactive),> 100 µM (inactive),> 100 µM (inactive),> 100 µM (inactive),> 100 µM (inactive),86.7 µM (inactive),> 100 µM (inactive),> 100 µM (inactive),> 100 µM (inactive),> 100 µM (inactive)
"COc1ccc(CNC(=O)[C@@H](C)N(C)C(=O)[C@@H]2CCCN2C(=O)[C@H](C(C)C)N(C)C(=O)[C@@H](NC(=O)[C@H](C(C)C)N(Cc2ccccc2)Cc2ccccc2)C(C)C)cc1OC (Bn2Val-V[NMeV]P[dNMeA]-{NH(3,4-diMeO-benzyl)})",11.5 µM (inactive),6.97 µM (inactive),2.23 µM (inactive),6.76 µM (inactive),1.36 µM (inactive),5.14 µM (inactive),8.63 µM (inactive),8.67 µM (inactive),6.58 µM (inactive),7.19 µM (inactive),12.6 µM (inactive),5.61 µM (inactive),6.28 µM (inactive),8.34 µM (inactive),5.87 µM (inactive),6.43 µM (inactive),7.43 µM (inactive),7.6 µM (inactive),7.43 µM (inactive),7.01 µM (inactive)
